Patent US11214803B2, “Modulators of YAP1 expression” (Ionis Pharmaceuticals, Inc., priority 2019, dated 2022)
Strand notation (5' to 3'): a small letter for the sugar, then the base; units joined by * are phosphorothioate-linked, units joined directly phosphodiester-linked; [ ] holds rarer units or linkages, { } end groups; capitals alone tell only the bases. k = constrained ethyl (cEt); [5mC] = 5-methylcytosine; d = 2'-deoxy (DNA)

Tested on: Yap1 mRNA
Test: Dose-dependent inhibition of human Yap1 in A-431 cells (Example 8, 10,000 cells per well, RTS4814)
Assay type: cell-based
Conditions: free uptake, approximately 48 hours, RTS4814; for Yap1 mRNA, % UTC: A-431 cells, 10,000 cells per well; for IC50: A-431 cells, linear regression on log/linear plot
Description: Modified oligonucleotides described in the studies above were tested at various doses in A-431 cells. Cultured A-431 cells at a density of 10,000 cells per well were treated using free uptake with modified oligonucleotides diluted to concentrations described in the tables below. After approximately 48 hours, Yap1 mRNA levels were measured as previously described using the Human Yap1 primer-probe set RTS4814. Yap1 mRNA levels were normalized to total RNA content, as measured by RIBOGREEN®. Results are presented in the tables below as percent control of the amount of Yap1 mRNA relative to untreated control cells (% UTC). IC50s were calculated using a linear regression on a log/linear plot of the data in excel.

Row | Substance | Yap1 mRNA, % UTC (31.3 nM) | Yap1 mRNA, % UTC (125.0 nM) | Yap1 mRNA, % UTC (500.0 nM) | Yap1 mRNA, % UTC (2000.00 nM) | IC50
1 | 1074792 (kA*kT*k[5mC]*dA*dA*dT*dG*dT*dG*d[5mC]*dT*d[5mC]*d[5mC]*kA*kT*k[5mC]; antisense) [compound 1074792] | 48 % UTC | 17 % UTC | 7 % UTC | 5 % UTC | < 20 nM
2 | 1076003 (kA*kA*kT*dT*dT*dA*dA*dT*dG*dG*d[5mC]*dT*dT*kG*k[5mC]*kA; antisense) [compound 1076003] | 60 % UTC | 28 % UTC | 17 % UTC | 11 % UTC | 40 nM
3 | 1076490 (k[5mC]*k[5mC]*kA*dA*dA*dA*dT*dA*dG*dG*dT*dG*dA*kG*kT*k[5mC]; antisense) [compound 1076490] | 36 % UTC | 9 % UTC | 4 % UTC | 3 % UTC | < 20 nM
4 | 1075808 (kG*k[5mC]*kA*dA*dT*dA*dG*dA*dG*dT*dA*dA*d[5mC]*k[5mC]*kA*kG; antisense) [compound 1075808] | 38 % UTC | 9 % UTC | 4 % UTC | 4 % UTC | < 20 nM
5 | 1076426 (kA*k[5mC]*kG*dG*dG*dA*dA*dA*dA*dT*dT*d[5mC]*dT*kG*kG*kA; antisense) [compound 1076426] | 68 % UTC | 46 % UTC | 24 % UTC | 18 % UTC | 100 nM
6 | 1075457 (antisense kA*kG*kT*dA*dA*dT*dA*dT*dG*dT*dA*d[5mC]*dA*kT*kG*kG) [compound 1075457] | 52 % UTC | 21 % UTC | 8 % UTC | 6 % UTC | < 20 nM
7 | 1075137 (kG*kA*kT*dT*dA*dA*dA*dT*dA*d[5mC]*dT*dG*dA*k[5mC]*k[5mC]*kA; antisense) [compound 1075137] | 70 % UTC | 22 % UTC | 8 % UTC | 4 % UTC | 100 nM
8 | 1076456 (k[5mC]*kT*kT*dT*dA*dA*dA*dG*dT*dG*dT*dA*dT*kG*kT*k[5mC]) [compound 1076456] | 43 % UTC | 14 % UTC | 5 % UTC | 3 % UTC | < 20 nM
9 | 1076327 (kG*kA*kT*dA*dA*dG*d[5mC]*dA*dA*dG*dG*dT*dT*k[5mC]*kT*k[5mC]; antisense) [compound 1076327] | 73 % UTC | 38 % UTC | 17 % UTC | 9 % UTC | 100 nM
10 | 1074762 (kG*k[5mC]*kT*dA*d[5mC]*d[5mC]*d[5mC]*dA*dA*dT*dA*d[5mC]*dA*kA*k[5mC]*k[5mC]; antisense) [compound 1074762] | 74 % UTC | 32 % UTC | 14 % UTC | 8 % UTC | 100 nM
11 | 1074851 (kA*kT*kT*dG*dT*dT*dA*dT*dG*dA*dT*dA*dG*kG*k[5mC]*kA; antisense) [compound 1074851] | 51 % UTC | 19 % UTC | 9 % UTC | 7 % UTC | < 20 nM
12 | 1074409 (kG*kG*kA*dT*dT*dA*dA*dA*dG*dT*dA*dT*d[5mC]*kT*kT*kG; antisense) [compound 1074409] | 60 % UTC | 30 % UTC | 13 % UTC | 7 % UTC | 40 nM
13 | 1074726 (antisense kG*kG*kT*dA*dT*dA*dA*d[5mC]*dT*dG*dG*dG*d[5mC]*kA*kA*kA) [compound 1074726] | 26 % UTC | 8 % UTC | 4 % UTC | 3 % UTC | < 20 nM
14 | 1075207 (k[5mC]*kT*kA*dT*dT*dA*dA*dA*dT*dG*dA*dG*d[5mC]*kA*k[5mC]*k[5mC]; antisense) [compound 1075207] | 82 % UTC | 51 % UTC | 17 % UTC | 7 % UTC | 100 nM
15 | 1076064 (kT*kA*kT*dG*dA*dA*d[5mC]*dA*dA*dT*dG*dT*dA*k[5mC]*kT*k[5mC]; antisense) [compound 1076064] | 68 % UTC | 26 % UTC | 10 % UTC | 5 % UTC | 100 nM
